# Entries after “also recorded” stand apart in the source; their conditions may differ.
# Columns and labels:
# Format in all cases: in vivo, human
# volunteers [1] = assay: Berg-Washington Card Sorting Task Test (BCST), double blind crossover vs placebo; settings: 200 mg
# From the text: (§1) In a double blind, randomized, crossover, and repeated measures manner, 13 volunteers (10 male, 3 female, average age 24±5 years, average body weight 72.91±19.30 kg, average height 169.96±11.84 cm, average BMI 24.80±3.71 kg/m^2) participated in this study. Participants limited ingestion of caffeine and other stimulants to normal use for 48-hours, fasted for 8-hours and reported to the lab and completed 4 different cognitive function tests to assess short-term attention and inhibitory control (Go-No Go Test), sustained attention (Vigilance Task Test), working memory (Sternberg Task Test) and cognitive flexibility (Berg-Washington Card Sorting Test). Once completed, the participants ingested either a placebo or 200 mg of paraxanthine (WGI, TX, USA) with 8 ounces of water. Participants repeated cognitive function tests 1, 2, 3, 4, 5, and 6 hours after ingestion of the supplement. After one-week participants repeated the experiment while consuming the other treatment.
# (§2) Data were analyzed by a General Linear Model multivariate and univariate analyses with repeated measures using body weight as a covariate. Data are expressed as means±standard deviations for the placebo (PLA) and Paraxanthine (PrX). Greenhouse-Geisser univariate p-levels are listed for time (T), weight×time (W×T) and group×time (G×T) interactions effects. Pairwise comparison is indicated by the following superscripts: †=[…] difference from baseline value; *=[…] difference from baseline; a=[…] difference between groups; b=[…] difference between groups. Eta2 vaules of […] are considered small, […] medium, and >0.14 are considered large.
# Berg-Washington Card Sorting Task Test is a test of basic cognitive flexibility or set-shifting between old/new rule changes. The test involves reasoning, learning, executive control and attention shifting. It is particularly sensitive to the inability to shift set. Less errors means subjects were able to both recognize and ‘shift’ to a new rule with higher ability. […]
# volunteers [2] = assay: Sternberg task test, double blind crossover vs placebo; settings: 200 mg; for Sternberg Mean Response Time: in ms (unit assumed)
# From the text: as §1, §2
# A test of working memory, ability to make use of short-term memory. A lower reaction time means participants can access their working memory faster. The Sternberg Task test is a widely used paradigm for studying short-term/working memory (STM/WM) involving cognitive control processes.
# subjects = assay: Paraxanthine pre-workout, subject reports; settings: single subject, own words
# Description: Health subjects were administered paraxanthine and asked to report their experience. Subjects reported the following.
# [3] = Mean (SEM) over all hours, listed as PrX
smiles,measurement,setting,value
"Cn1c(=O)[nH]c2ncn(C)c2c1=O [paraxanthine, 1,7-dimethylxanthine]","number of correct answers in BCST, in words",volunteers [1],significantly increased
same,"number of errors in BCST, in words",volunteers [1],reducing the number of errors
same,perseverative errors PEBL (FIG. 3),volunteers [1],no significant time or between treatment effects
same,BCST Correct Response,volunteers [1]; Mean (SEM) over all hours,97.3
same,BCST Errors,volunteers [1]; Mean (SEM) over all hours,18.0
same,BCST Perseverative Errors (PAR rules),volunteers [1]; Mean (SEM) over all hours,8.7 ± 1.6
same,BCST Perseverative Errors (PEBL),volunteers [1]; Mean (SEM) over all hours,12.7 ± 1.2
same,BCST Correct Response,volunteers [1]; [3],102.5 ± 3.4
same,BCST Errors,volunteers [1]; [3],18.0 ± 3.9
same,change in correct answers after 6 hours,volunteers [1]; after 6 hours,+1.9
same,change in errors after 6 hours,volunteers [1]; after 6 hours,−0.6
same,correct responses adjusted for differences in baseline values,volunteers [1]; baseline-adjusted,2.5
same,errors adjusted for differences in baseline values,volunteers [1]; baseline-adjusted,−1.5
same,"less errors than placebo, adjusted for differences in baseline values","volunteers [1]; baseline-adjusted, vs placebo",600%
same,"more correct responses than placebo, adjusted for differences in baseline values","volunteers [1]; baseline-adjusted, vs placebo",150%
same,BCST Correct Response,volunteers [1]; hour 0 (before ingestion),100.0 ± 6.6
same,BCST Errors,volunteers [1]; hour 0 (before ingestion),19.5 ± 6.6
same,BCST Perseverative Errors (PAR rules),volunteers [1]; hour 0 (before ingestion),10.1 ± 4.6
same,BCST Perseverative Errors (PEBL),volunteers [1]; hour 0 (before ingestion),13.7 ± 5.0
same,BCST Correct Response,volunteers [1]; hour 1 after ingestion,101.4 ± 3.6
same,BCST Errors,volunteers [1]; hour 1 after ingestion,18.1 ± 4.3
same,BCST Perseverative Errors (PAR rules),volunteers [1]; hour 1 after ingestion,8.8 ± 2.1
same,BCST Perseverative Errors (PEBL),volunteers [1]; hour 1 after ingestion,12.5 ± 3.0
same,BCST Correct Response,volunteers [1]; hour 2 after ingestion,104.3
same,BCST Errors,volunteers [1]; hour 2 after ingestion,16.8
same,BCST Perseverative Errors (PAR rules),volunteers [1]; hour 2 after ingestion,7.8
same,BCST Perseverative Errors (PEBL),volunteers [1]; hour 2 after ingestion,12.3
same,number of correct responses (FIG. 1),volunteers [1]; hour 2 and 4 over baseline,significantly (p<0.5) increased
same,BCST Correct Response,volunteers [1]; hour 3 after ingestion,100.6 ± 5.8
same,BCST Errors,volunteers [1]; hour 3 after ingestion,17.0 ± 3.9
same,BCST Perseverative Errors (PAR rules),volunteers [1]; hour 3 after ingestion,8.5 ± 2.9
same,BCST Perseverative Errors (PEBL),volunteers [1]; hour 3 after ingestion,12.3 ± 3.2
same,number of correct responses between groups (FIG. 1),"volunteers [1]; hour 4, between groups",showed a trend (p<0.1) between groups
same,BCST Correct Response,volunteers [1]; hour 4 after ingestion,106.4
same,BCST Errors,volunteers [1]; hour 4 after ingestion,19.0
same,BCST Perseverative Errors (PAR rules),volunteers [1]; hour 4 after ingestion,8.6
same,BCST Perseverative Errors (PEBL),volunteers [1]; hour 4 after ingestion,13.3
same,BCST Correct Response,volunteers [1]; hour 5 after ingestion,101.5 ± 4.0
same,BCST Errors,volunteers [1]; hour 5 after ingestion,18.5 ± 4.2
same,BCST Perseverative Errors (PAR rules),volunteers [1]; hour 5 after ingestion,8.8 ± 3.6
same,BCST Perseverative Errors (PEBL),volunteers [1]; hour 5 after ingestion,13.1 ± 3.6
same,perseverative errors PAR between groups (FIG. 4),"volunteers [1]; hour 6, between groups",trend (p<0.1) towards less errors between groups
same,BCST Correct Response,volunteers [1]; hour 6 after ingestion,103.5
same,BCST Errors,volunteers [1]; hour 6 after ingestion,16.3
same,BCST Perseverative Errors (PAR rules),volunteers [1]; hour 6 after ingestion,8.1
same,BCST Perseverative Errors (PEBL),volunteers [1]; hour 6 after ingestion,11.7
same,errors compared to baseline (FIG. 2),volunteers [1]; hour 6 vs baseline,trend (p<0.1) towards less error
same,"less errors than placebo, overall","volunteers [1]; overall, vs placebo",23.7%
same,"more correct responses than placebo, overall","volunteers [1]; overall, vs placebo",5.3%
same,letter length 2 present reaction time (FIG. 18),volunteers [2],significantly improved reaction times
same,letter length 4 absent reaction time (FIG. 16),volunteers [2],no significant differences over time or between treatments
same,letter length 4 present reaction time (FIG. 19),volunteers [2],"no significant differences over time or between treatments, with Paraxanthine showing greater improvements during hours 3-6"
same,letter length 6 absent reaction time (FIG. 17),volunteers [2],"no significant differences over time or between treatments, with Paraxanthine showing greater improvement during hours 3-5"
same,Letter Length 2: Absent Reaction Time (Millisecond),volunteers [2]; Mean (SEM) over all hours,577.6 ± 27.1 Millisecond
same,Letter Length 2: Present Reaction Time (Millisecond),volunteers [2]; Mean (SEM) over all hours,503.5 ± 17.8 Millisecond
same,Letter Length 4: Absent Reaction Time (Millisecond),volunteers [2]; Mean (SEM) over all hours,741.3 ± 40.0 Millisecond
same,Letter Length 4: Present Reaction Time (Millisecond),volunteers [2]; Mean (SEM) over all hours,617.9 ± 25.1 Millisecond
same,Letter Length 6: Absent Reaction Time (Millisecond),volunteers [2]; Mean (SEM) over all hours,970.0 ± 55.7 Millisecond
same,Letter Length 6: Present Reaction Time (Millisecond),volunteers [2]; Mean (SEM) over all hours,808.2 ± 40.2 Millisecond
same,Sternberg Mean Response Time,volunteers [2]; Mean (SEM) over all hours,703.1 ± 32.4
same,"short-term/working memory, letter length 6 present reaction time",volunteers [2]; after 4 and 5 hours,significantly increased short-term/working memory
same,Letter Length 2: Absent Reaction Time (Millisecond),volunteers [2]; hour 0 (before ingestion),621.9 ± 154.3 Millisecond
same,Letter Length 2: Present Reaction Time (Millisecond),volunteers [2]; hour 0 (before ingestion),541.1 ± 104.2 Millisecond
same,Letter Length 4: Absent Reaction Time (Millisecond),volunteers [2]; hour 0 (before ingestion),748.7 ± 148.5 Millisecond
same,Letter Length 4: Present Reaction Time (Millisecond),volunteers [2]; hour 0 (before ingestion),625.9 ± 100.6 Millisecond
same,Letter Length 6: Absent Reaction Time (Millisecond),volunteers [2]; hour 0 (before ingestion),"1,012.5 ± 334.2 Millisecond"
same,Letter Length 6: Present Reaction Time (Millisecond),volunteers [2]; hour 0 (before ingestion),841.6 ± 254.0 Millisecond
same,Sternberg Mean Response Time,volunteers [2]; hour 0 (before ingestion),731.9 ± 163.0
same,Letter Length 2: Absent Reaction Time (Millisecond),volunteers [2]; hour 1 after ingestion,596.7 Millisecond
same,Letter Length 2: Present Reaction Time (Millisecond),volunteers [2]; hour 1 after ingestion,516.6 Millisecond
same,Letter Length 4: Absent Reaction Time (Millisecond),volunteers [2]; hour 1 after ingestion,755.5 Millisecond
same,Letter Length 4: Present Reaction Time (Millisecond),volunteers [2]; hour 1 after ingestion,642.9 Millisecond
same,Letter Length 6: Absent Reaction Time (Millisecond),volunteers [2]; hour 1 after ingestion,986.5 Millisecond
same,Letter Length 6: Present Reaction Time (Millisecond),volunteers [2]; hour 1 after ingestion,829.7 Millisecond
same,Sternberg Mean Response Time,volunteers [2]; hour 1 after ingestion,721.3
same,Letter Length 2: Absent Reaction Time (Millisecond),volunteers [2]; hour 2 after ingestion,579.7 Millisecond
same,Letter Length 2: Present Reaction Time (Millisecond),volunteers [2]; hour 2 after ingestion,503.8 Millisecond
same,Letter Length 4: Absent Reaction Time (Millisecond),volunteers [2]; hour 2 after ingestion,758.4 Millisecond
same,Letter Length 4: Present Reaction Time (Millisecond),volunteers [2]; hour 2 after ingestion,614.7 Millisecond
same,Letter Length 6: Absent Reaction Time (Millisecond),volunteers [2]; hour 2 after ingestion,"1,011.3 Millisecond"
same,Letter Length 6: Present Reaction Time (Millisecond),volunteers [2]; hour 2 after ingestion,800.0 Millisecond
same,Sternberg Mean Response Time,volunteers [2]; hour 2 after ingestion,711.3
same,letter length 2 absent reaction time (FIG. 15),"volunteers [2]; hour 3, 4 and 5",trend towards improved reaction times
same,Letter Length 2: Absent Reaction Time (Millisecond),volunteers [2]; hour 3 after ingestion,559.3 Millisecond
same,Letter Length 2: Present Reaction Time (Millisecond),volunteers [2]; hour 3 after ingestion,497.1 Millisecond
same,Letter Length 4: Absent Reaction Time (Millisecond),volunteers [2]; hour 3 after ingestion,762.3 Millisecond
same,Letter Length 4: Present Reaction Time (Millisecond),volunteers [2]; hour 3 after ingestion,634.6 Millisecond
same,Letter Length 6: Absent Reaction Time (Millisecond),volunteers [2]; hour 3 after ingestion,980.9 Millisecond
same,Letter Length 6: Present Reaction Time (Millisecond),volunteers [2]; hour 3 after ingestion,830.6 Millisecond
same,Sternberg Mean Response Time,volunteers [2]; hour 3 after ingestion,710.8
same,Letter Length 2: Absent Reaction Time (Millisecond),volunteers [2]; hour 4 after ingestion,553.8 Millisecond
same,Letter Length 2: Present Reaction Time (Millisecond),volunteers [2]; hour 4 after ingestion,488.3 Millisecond
same,Letter Length 4: Absent Reaction Time (Millisecond),volunteers [2]; hour 4 after ingestion,701.3 Millisecond
same,Letter Length 4: Present Reaction Time (Millisecond),volunteers [2]; hour 4 after ingestion,598.2 Millisecond
same,Letter Length 6: Absent Reaction Time (Millisecond),volunteers [2]; hour 4 after ingestion,914.8 Millisecond
same,Letter Length 6: Present Reaction Time (Millisecond),volunteers [2]; hour 4 after ingestion,778.1 Millisecond
same,Sternberg Mean Response Time,volunteers [2]; hour 4 after ingestion,672.4
same,Letter Length 2: Absent Reaction Time (Millisecond),volunteers [2]; hour 5 after ingestion,558.8 Millisecond
same,Letter Length 2: Present Reaction Time (Millisecond),volunteers [2]; hour 5 after ingestion,490.3 Millisecond
same,Letter Length 4: Absent Reaction Time (Millisecond),volunteers [2]; hour 5 after ingestion,717.5 Millisecond
same,Letter Length 4: Present Reaction Time (Millisecond),volunteers [2]; hour 5 after ingestion,617.1 Millisecond
same,Letter Length 6: Absent Reaction Time (Millisecond),volunteers [2]; hour 5 after ingestion,913.5 Millisecond
same,Letter Length 6: Present Reaction Time (Millisecond),volunteers [2]; hour 5 after ingestion,761.8 Millisecond
same,Sternberg Mean Response Time,volunteers [2]; hour 5 after ingestion,676.5
same,Letter Length 2: Absent Reaction Time (Millisecond),volunteers [2]; hour 6 after ingestion,568.9 Millisecond
same,Letter Length 2: Present Reaction Time (Millisecond),volunteers [2]; hour 6 after ingestion,483.8 Millisecond
same,Letter Length 4: Absent Reaction Time (Millisecond),volunteers [2]; hour 6 after ingestion,742.2 Millisecond
same,Letter Length 4: Present Reaction Time (Millisecond),volunteers [2]; hour 6 after ingestion,590.3 Millisecond
same,Letter Length 6: Absent Reaction Time (Millisecond),volunteers [2]; hour 6 after ingestion,970.7 Millisecond
same,Letter Length 6: Present Reaction Time (Millisecond),volunteers [2]; hour 6 after ingestion,816.4 Millisecond
same,Sternberg Mean Response Time,volunteers [2]; hour 6 after ingestion,695.4
same,letter length 6 present reaction time (FIG. 20),volunteers [2]; hours 4 and 5,improved present reaction time
same,decrease of mean response times in the Sternberg Test compared to baseline,"volunteers [2]; overall, vs baseline",3.9%
same,experience reported by subject,subjects,"happier, better, more energy and focused; also recorded: phenomenal; also recorded: clean energy, but not stressed or stimmed; also recorded: it works"
